# Data published in paper PMC8073976, “Towards Targeted Alpha Therapy with Actinium-225: Chelators for Mild Condition Radiolabeling and Targeting PSMA—A Proof of Concept Study” (Cancers, 2021).
# Key:
# [1] = assay type: physicochemical; conditions: pH 6
# Source text: Unfortunately, a suitable reversed-phase iTLC system for the ligands mcp-M-PSMA and mcp-D-PSMA was not found so far to determine the radiochemical yields. The resolution of our standard system was not efficient, most likely due to the bigger size of these molecules compared to the basic chelators, different protonation steps and possible conformational structures. […] Additionally, the stability of the ^225Ac-labeled conjugates in acetate buffer was investigated by HPLC analyses over a period of ten days.
# Actinium-225 was purchased as a 0.1 M HCl solution from ITM Munich and used without purification. Stem solutions of all ligands were prepared in concentrations of 10^−2 M and diluted to 10^−6 M using 0.2 M ammonium acetate buffer at pH 6. For concentration-dependent labeling experiments, 10 µL of each ligand stem solution was incubated with 100 kBq of actinium-225 (1–5 µL) and the total volume was adjusted to 100 µL with 0.2 M ammonium acetate buffer at pH 6. For stability analyses, 50 µL of the buffer volume were replaced by 50 µL of 0.2 M ascorbic acid or 50 µL of 2,5-dihydroxy benzoic acid, respectively. […]
# All samples were incubated for one hour at room temperature and analyzed afterward. […] Radioactivity was measured in Isomed 2100 dose calibrator. Low radioactivity count rates were determined in Isomed 2160 sodium iodide detector. […]
# [2] = 225Ac-labeling of ligands in serial dilution, radiochemical yield and 7-day stability by TLC; assay type: physicochemical; conditions: 100 kBq actinium-225, 0.2 M ammonium acetate buffer pH 6, after seven days; for RCY NP (7 d): normal phase TLC, silica, 50 mM EDTA pH 7; for RCY RP (7 d): reversed-phase TLC, Alugram RP-CN, acetonitrile/water 7/3
# Protocol: To compare the efficiency of the synthesized chelators and their conjugates, 100 kBq of actinium-225 were incubated with each ligand at different concentrations (10^−5 M; 10^−6 M; 10^−7 M). The radiochemical yield was determined after one hour of reaction time using normal phase and reversed-phase TLC. Whereas one TLC-system was designed to move free actinium-225 with the solvent front, the other system was developed only to move the actinium-225 labeled complexes. Concentration-dependent radiochemical yields for all ligands and 7-day-longterm yields, which were calculated using both TLC systems, are presented in Table 1.
# Actinium-225 was purchased as a 0.1 M HCl solution from ITM Munich and used without purification. Stem solutions of all ligands were prepared in concentrations of 10^−2 M and diluted to 10^−6 M using 0.2 M ammonium acetate buffer at pH 6. For concentration-dependent labeling experiments, 10 µL of each ligand stem solution was incubated with 100 kBq of actinium-225 (1–5 µL) and the total volume was adjusted to 100 µL with 0.2 M ammonium acetate buffer at pH 6. For stability analyses, 50 µL of the buffer volume were replaced by 50 µL of 0.2 M ascorbic acid or 50 µL of 2,5-dihydroxy benzoic acid, respectively. Labeling for cell-binding studies was performed using 1.5 MBq of actinium-225 and 4 nmol of the respective PSMA ligand in a total volume of 400 µL adjusted with 0.2 M ammonium acetate buffer at pH 6. Radiolabeling for cell survival studies and all in vivo experiments were performed using 1.5 MBq of actinium-225 and 3.3 nmol of the respective ligand.
# All samples were incubated for one hour at room temperature and analyzed afterward. TLC analyses were carried out in two different systems, normal phase on silica plates in 50 mM EDTA solution (pH 7) and reversed-phase on Alugram RP-CN in acetonitrile/water (7/3). TLC plates were imaged using a phosphoimager Amersham Typhoon 5 Scanner (Cytiva Europe GmbH, Freiburg, Germany) after a decay time of at least 7 h. Analytical HPLC was performed using a Jasco HPLC system with RITA analyzer (Elysia-raytest GmbH, Straubenhardt, Germany) for gamma detection on a Phenomenex Phenyl-Hexyl column in water/acetonitrile (+ 0.1% TFA). Radioactivity was measured in Isomed 2100 dose calibrator. Low radioactivity count rates were determined in Isomed 2160 sodium iodide detector. More precise measurements and nuclide identification were carried out on an activity- and efficiency-calibrated HPGe detector CryoPulse 5 (Canberra).
# logD7.4 determination = assay type: physicochemical; conditions: pH 7.4, 225Ac complex
# LNCaP cells [3] = assay: CyQUANT direct cell proliferation assay; assay type: cell-based, human; conditions: highest applied dose, 4 h of exposure, cell number 24 h after treatment by DNA staining
# Protocol: The treatment response on cellular proliferation was assessed using the CyQUANT direct cell proliferation assay (Thermo Fisher Scientific, Waltham, MA, USA). For this purpose, LNCaP cells were plated in black 96 well cell culture microplates (Greiner Bio-One GmbH, Frickenhausen, Germany) at a density of 2 × 10^4 cells/0.05 mL/well. […] After 1 or 4 h of incubation, the cell culture media was removed and fresh media was added to each well. Cell numbers were subsequently determined 24 h later as per the manufacturer’s protocol. The fluorescence intensity was measured with the Varioskan Flash microplate reader (Thermo Fisher Scientific, Waltham, MA, USA).
# LNCaP cells [4] = assay: Colony formation assay; assay type: cell-based, human; conditions: for Percentage amount of colonies referred to the non-radioactive control: 8 days colony growth
# Protocol: LNCaP cells were plated in 6-well cell culture microplates (Greiner Bio-One GmbH, Frickenhausen, Germany) at a density of 6 × 10^3 cells/2 mL/well. […] After 1 or 4 h of incubation, the cell culture media was removed and fresh media was added to each well. Plates were then incubated at 37 °C for 8 days and re-fed every 3 to 4 days. […] The plates were scanned with an Amersham Typhoon 5 Scanner (Cytiva Europe GmbH, Freiburg, Germany) and the colonies were counted using the Image-Quant TL software (Version 8.1, Cytiva Europe GmbH, Freiburg, Germany).
# LNCaP tumor-bearing mice = assay: Biodistribution in LNCaP tumor-bearing SCID mice; assay type: in vivo, mouse
# Source text: The SCID male mice (ENVIGO, Indianapolis, IN, USA) 6–8 weeks old were subcutaneously injected into the right flank with 10 × 10^6 LNCaP cells (ATCC, Manassas, VA, USA) mixed with Matrigel Matrix (Corning, Corning, NY, USA) at a 1:1 ratio. The tumor growth was continuously monitored by caliper-based measurements. When the tumor volume reached 200–300 mm^3 (i.e., 5–6 weeks after the inoculation of cells), the mice were used for biodistribution studies. The experimental animals were housed in a specific-pathogen-free animal facility. All experiments with animals were performed in accordance with appropriate legal norms (Czech Law No. 246/1992) and with the approval of the Ministry of Education, Youth and Sports (MSMT-35035/2019-3) and approval of the Ethical Committee of Faculty of Medicine and Dentistry, Palacky University in Olomouc. The number of animals was reduced as much as possible (n = 4 per group and time point) for all in vivo experiments.
# For biodistribution studies, the radiotracers were diluted with saline. The prepared radiotracers were applied retro-orbitally (r.o.) to the experimental animals at a dose of 50 kBq per mouse corresponding to 10 pmol of the peptide. The tracer injection was carried out under 2% isoflurane anesthesia (FORANE, Abbott Laboratories, Abbott Park, IL, USA) to minimize animal suffering and to prevent animal motion. The mice were sacrificed by cervical dislocation 10 min, 60 min and 24 h post-injection and organs of interest (blood, spleen, pancreas, stomach, intestine, kidneys, liver, heart, lungs, muscle, bone and tumor) were collected. The samples were weighed and the activity was measured on an automatic gamma counter. The radiotracer accumulation was expressed as a percentage of injected dose per gram (%ID/g) of the corresponding organ.
# [5] = 1 h incubation time, 0.05 kBq/mL
# [6] = 1 h incubation time, 0.5 kBq/mL
# [7] = 4 h incubation time, 0.05 kBq/mL
# [8] = 4 h incubation time, 0.5 kBq/mL
# [9] = LNCaP tumor-bearing SCID mice, 24 h p.i.
smiles,measurement,setting,value
"O=C(O)CC[C@H](NC(=O)N[C@H](CCCCNC(=O)[C@@H](Cc1ccc2ccccc2c1)NC(=O)C1CCC(CNC(=O)CCCCn2cc(COc3cc(CN4CCOCCOCCN(Cc5cccc(C(=O)O)n5)CCOCCOCC4)nc(C(=O)O)c3)nn2)CC1)C(=O)O)C(=O)O (mixture of isomers) [mcp-M-PSMA, (3RS,10RS,14S)-1-((1s,4S)-4-((5-(4-(((2-Carboxy-6-((16-((6-carboxypyridin-2-yl)methyl)-1,4,10,13-tetraoxa-7,16-diazacyclooctadecan-7-yl)methyl)pyridin-4-yl)oxy)methyl)-1H-1,2,3-triazol-1-yl)pentanamido)methyl)cyclohexyl)-3-(naphthalen-2-ylmethyl)-1,4,12-trioxo-2,5,11,13-tetraazahexadecane-10,14,16-tricarboxylic acid]",stable in acetate buffer,[1],at least 48 h
"O=C([O-])c1cccc(CN2CCOCCOCCN(Cc3cccc(C(=O)[O-])n3)CCOCCOCC2)n1.[225Ac+3] [[^225Ac]Ac-macropa, reference compound]",RCY NP (7 d),[2]; ligand 10^−5 M,99%
same,RCY RP (7 d),[2]; ligand 10^−5 M,99%
same,RCY NP (7 d),[2]; ligand 10^−6 M,99%
same,RCY RP (7 d),[2]; ligand 10^−6 M,99%
same,RCY NP (7 d),[2]; ligand 10^−7 M,99%
same,RCY RP (7 d),[2]; ligand 10^−7 M,99%
"O=C(O)CC[C@H](NC(=O)N[C@@H](CCCCNC(=O)[C@H](Cc1ccc2ccccc2c1)NC(=O)[C@H]1CC[C@H](CNC(=O)CCCCn2cc(COc3cc(CN4CCOCCOCCN(Cc5cc(OCc6cn(CCCCC(=O)NC[C@H]7CC[C@H](C(=O)N[C@@H](Cc8ccc9ccccc9c8)C(=O)NCCCC[C@H](NC(=O)N[C@@H](CCC(=O)O)C(=O)O)C(=O)O)CC7)nn6)cc(C(=O)O)n5)CCOCCOCC4)nc(C(=O)O)c3)nn2)CC1)C(=O)O)C(=O)O [[^225Ac]Ac-mcp-D-PSMA, metal not drawn]",RCY NP (7 d),[2]; ligand 10^−5 M,99%
same,RCY NP (7 d),[2]; ligand 10^−6 M,99%
same,RCY NP (7 d),[2]; ligand 10^−7 M,95%
same,logD7.4,logD7.4 determination,−2.5 ± 0.1
same,decrease of relative cell number,LNCaP cells [3],approximately one third
same,inhibition of colony formation,"LNCaP cells [4]; 5 and 50 kBq/mL, 4 h",~100%
same,Percentage amount of colonies referred to the non-radioactive control,LNCaP cells [4]; [5],75.0%
same,Percentage amount of colonies referred to the non-radioactive control,LNCaP cells [4]; [6],3.8%
same,Percentage amount of colonies referred to the non-radioactive control,"LNCaP cells [4]; 1 h incubation time, 5 kBq/mL",3.1%
same,Percentage amount of colonies referred to the non-radioactive control,"LNCaP cells [4]; 1 h incubation time, 50 kBq/mL",0.8%
same,Percentage amount of colonies referred to the non-radioactive control,LNCaP cells [4]; [7],49.1%
same,Percentage amount of colonies referred to the non-radioactive control,LNCaP cells [4]; [8],6.2%
same,Percentage amount of colonies referred to the non-radioactive control,"LNCaP cells [4]; 4 h incubation time, 5 kBq/mL",0.5%
same,Percentage amount of colonies referred to the non-radioactive control,"LNCaP cells [4]; 4 h incubation time, 50 kBq/mL",0.4%
same,Tumor-to-blood ratio,"LNCaP tumor-bearing mice; mouse, in vivo",158.11
same,tumor-to-muscle ratio,"LNCaP tumor-bearing mice; mouse, in vivo",275.77
C#CCOc1cc(CN2CCOCCOCCN(Cc3cc(OCC#C)cc(C(=O)[O-])n3)CCOCCOCC2)nc(C(=O)[O-])c1.[225Ac+3] [[^225Ac]Ac-mcp-D-click],RCY NP (7 d),[2]; ligand 10^−5 M,99%
same,RCY RP (7 d),[2]; ligand 10^−5 M,99%
same,RCY NP (7 d),[2]; ligand 10^−6 M,99%
same,RCY RP (7 d),[2]; ligand 10^−6 M,94%
same,RCY NP (7 d),[2]; ligand 10^−7 M,50%
same,RCY RP (7 d),[2]; ligand 10^−7 M,40%
O=C(O)CCCCn1cc(COc2cc(CN3CCOCCOCCN(Cc4cccc(C(=O)[O-])n4)CCOCCOCC3)nc(C(=O)[O-])c2)nn1.[225Ac+3] [[^225Ac]Ac-mcp-M-COOH],RCY NP (7 d),[2]; ligand 10^−5 M,99%
same,RCY RP (7 d),[2]; ligand 10^−5 M,99%
same,RCY NP (7 d),[2]; ligand 10^−6 M,99%
same,RCY RP (7 d),[2]; ligand 10^−6 M,99%
same,RCY NP (7 d),[2]; ligand 10^−7 M,99%
same,RCY RP (7 d),[2]; ligand 10^−7 M,96%
"O=C(O)CC[C@H](NC(=O)N[C@@H](CCCCNC(=O)[C@H](Cc1ccc2ccccc2c1)NC(=O)[C@H]1CC[C@H](CNC(=O)CCCCn2cc(COc3cc(CN4CCOCCOCCN(Cc5cccc(C(=O)O)n5)CCOCCOCC4)nc(C(=O)O)c3)nn2)CC1)C(=O)O)C(=O)O [[^225Ac]Ac-mcp-M-PSMA, metal not drawn]",RCY NP (7 d),[2]; ligand 10^−5 M,99%
same,RCY NP (7 d),[2]; ligand 10^−6 M,99%
same,RCY NP (7 d),[2]; ligand 10^−7 M,99%
same,logD7.4,logD7.4 determination,−2.8 ± 0.1
same,decrease of relative cell number,LNCaP cells [3],approximately one third
same,Percentage amount of colonies referred to the non-radioactive control,LNCaP cells [4]; [5],107.2%
same,Percentage amount of colonies referred to the non-radioactive control,LNCaP cells [4]; [6],91.8%
same,Percentage amount of colonies referred to the non-radioactive control,"LNCaP cells [4]; 1 h incubation time, 5 kBq/mL",19.4%
same,Percentage amount of colonies referred to the non-radioactive control,"LNCaP cells [4]; 1 h incubation time, 50 kBq/mL",1.4%
same,Percentage amount of colonies referred to the non-radioactive control,LNCaP cells [4]; [7],116.8%
same,Percentage amount of colonies referred to the non-radioactive control,LNCaP cells [4]; [8],57.2%
same,Percentage amount of colonies referred to the non-radioactive control,"LNCaP cells [4]; 4 h incubation time, 5 kBq/mL",5.3%
same,Percentage amount of colonies referred to the non-radioactive control,"LNCaP cells [4]; 4 h incubation time, 50 kBq/mL",0.9%
same,Tumor-to-blood ratio,LNCaP tumor-bearing mice; [9],188.42
same,tumor-to-muscle ratio,LNCaP tumor-bearing mice; [9],310.82
C#CCOc1cc(CN2CCOCCOCCN(Cc3cccc(C(=O)[O-])n3)CCOCCOCC2)nc(C(=O)[O-])c1.[225Ac+3] [[^225Ac]Ac-mcp-M-click],RCY NP (7 d),[2]; ligand 10^−5 M,99%
same,RCY RP (7 d),[2]; ligand 10^−5 M,99%
same,RCY NP (7 d),[2]; ligand 10^−6 M,99%
same,RCY RP (7 d),[2]; ligand 10^−6 M,99%
same,RCY NP (7 d),[2]; ligand 10^−7 M,58%
same,RCY RP (7 d),[2]; ligand 10^−7 M,55%
